Test results taken from ChEMBL document CHEMBL1201862, “PubChem BioAssay data set” (2004).
Values joined by “and” are separate entries in the source; they are usually repeats but may differ in a detail not shown here. Identical values can stand only once. Active and inactive are the calls of the source. Cut-off read from the data, not from the text of the source, for most assays here: actives have a measured EC50 and inactives only a lower limit.

Tests used:
[1] = biological target: T1, Heat shock factor protein 1 (Mus musculus, UniProt P38532); assay: HSF1 potentiators in luciferase reporter cells, confirmation, cell-based, NIH3T3, luminescence, dose retest (AID 435004); type: functional;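 note: stress induced by proteasome inhibitor MG132 added 30 min after compound; luciferase reporter driven by HSF1 response element in NIH3T3 cells; actives raise luminescence as potentiators of the MG132 stress response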
T1 sequence (P38532 whole entry): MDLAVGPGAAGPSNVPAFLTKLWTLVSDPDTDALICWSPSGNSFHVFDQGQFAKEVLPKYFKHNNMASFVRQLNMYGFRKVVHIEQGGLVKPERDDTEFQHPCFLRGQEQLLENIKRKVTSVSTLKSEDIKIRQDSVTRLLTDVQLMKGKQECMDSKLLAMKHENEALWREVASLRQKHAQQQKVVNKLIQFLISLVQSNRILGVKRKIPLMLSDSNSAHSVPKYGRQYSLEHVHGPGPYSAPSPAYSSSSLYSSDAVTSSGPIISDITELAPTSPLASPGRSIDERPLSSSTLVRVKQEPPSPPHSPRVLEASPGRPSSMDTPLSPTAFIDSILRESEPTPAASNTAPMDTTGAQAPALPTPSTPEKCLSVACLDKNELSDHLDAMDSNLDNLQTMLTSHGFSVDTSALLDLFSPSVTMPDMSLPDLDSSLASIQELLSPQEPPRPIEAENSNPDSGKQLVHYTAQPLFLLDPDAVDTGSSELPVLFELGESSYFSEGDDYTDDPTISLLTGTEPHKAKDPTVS

[2] = inhibitors of intracellular T. cruzi replication, confirmation, NIH3T3 host cells, beta-gal luminescence (AID 2044); type: functional, cell-based;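 note: intracellular parasites grown in NIH/3T3 mouse fibroblasts as host cells; luminescent beta-galactosidase reporter signal from transgenic T. cruzi replicating inside host cells; inhibitors lower the luminescence signal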
[3] = cytotoxicity toward NIH3T3 fibroblasts, dose response, counter-screen, cell-based, ATP luminescence, mouse fibroblasts (AID 2010); type: functional;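 note: cells exposed to compound for about 90 hours before reading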
[4] = biological target: Cytochrome P450 2D6 (Homo sapiens, UniProt P10635);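 note: CYP2D6 member of a cytochrome P450 panel assay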
[5] = biological target: T2, Cytochrome P450 1A2 (Homo sapiens, UniProt P05177);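 note: PubChem cytochrome P450 panel assay, CYP1A2 panel member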
T2 sequence (P05177 whole entry): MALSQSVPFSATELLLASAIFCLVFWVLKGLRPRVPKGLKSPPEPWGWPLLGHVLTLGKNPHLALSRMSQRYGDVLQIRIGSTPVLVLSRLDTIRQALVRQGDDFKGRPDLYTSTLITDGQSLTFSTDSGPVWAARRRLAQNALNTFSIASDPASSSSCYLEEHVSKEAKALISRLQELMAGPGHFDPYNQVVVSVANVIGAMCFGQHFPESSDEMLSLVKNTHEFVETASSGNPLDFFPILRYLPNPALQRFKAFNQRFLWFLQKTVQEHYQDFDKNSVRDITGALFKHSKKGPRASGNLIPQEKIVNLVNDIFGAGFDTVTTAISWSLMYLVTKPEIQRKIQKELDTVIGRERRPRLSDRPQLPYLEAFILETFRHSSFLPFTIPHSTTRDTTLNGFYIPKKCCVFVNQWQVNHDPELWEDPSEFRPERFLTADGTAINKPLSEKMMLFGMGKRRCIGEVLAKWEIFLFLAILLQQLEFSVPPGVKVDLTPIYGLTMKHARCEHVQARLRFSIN

[6] = biological target: Cytochrome P450 3A4 (Homo sapiens, UniProt P08684);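 note: CYP3A4 tested as one member of a cytochrome P450 panel screen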
[7] = system: Streptococcus sp. 'group A'; assay: growth inhibition of control SK(-) GAS strain, dose response, counter-screen for streptokinase expression inhibitor project, luminescence, kanamycin, BacTiterGlo, confirmation (AID 1900); type: functional, organism-based
[8] = system: Streptococcus; assay: Group A Streptococcus viability loss, dose response, counter-screen for streptokinase expression inhibitor project, luminescence, BacTiterGlo (AID 1915); type: functional, organism-based;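 note: potency for reduction of bacterial viability or growth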

Chain of Cytochrome P450 3A4 (P08684 whole entry): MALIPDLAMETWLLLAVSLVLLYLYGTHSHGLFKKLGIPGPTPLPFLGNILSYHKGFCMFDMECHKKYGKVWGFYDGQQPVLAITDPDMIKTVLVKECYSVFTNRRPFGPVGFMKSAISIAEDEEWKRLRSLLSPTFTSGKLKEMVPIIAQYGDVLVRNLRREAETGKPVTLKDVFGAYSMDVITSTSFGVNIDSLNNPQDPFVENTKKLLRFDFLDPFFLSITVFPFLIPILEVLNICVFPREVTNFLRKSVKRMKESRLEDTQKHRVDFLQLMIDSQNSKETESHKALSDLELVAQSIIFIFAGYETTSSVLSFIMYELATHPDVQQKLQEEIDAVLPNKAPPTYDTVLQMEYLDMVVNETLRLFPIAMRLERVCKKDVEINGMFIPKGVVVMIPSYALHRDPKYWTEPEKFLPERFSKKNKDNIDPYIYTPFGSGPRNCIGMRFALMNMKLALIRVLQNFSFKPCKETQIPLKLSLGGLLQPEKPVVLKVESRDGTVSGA
Chain of Cytochrome P450 2D6 (P10635 whole entry): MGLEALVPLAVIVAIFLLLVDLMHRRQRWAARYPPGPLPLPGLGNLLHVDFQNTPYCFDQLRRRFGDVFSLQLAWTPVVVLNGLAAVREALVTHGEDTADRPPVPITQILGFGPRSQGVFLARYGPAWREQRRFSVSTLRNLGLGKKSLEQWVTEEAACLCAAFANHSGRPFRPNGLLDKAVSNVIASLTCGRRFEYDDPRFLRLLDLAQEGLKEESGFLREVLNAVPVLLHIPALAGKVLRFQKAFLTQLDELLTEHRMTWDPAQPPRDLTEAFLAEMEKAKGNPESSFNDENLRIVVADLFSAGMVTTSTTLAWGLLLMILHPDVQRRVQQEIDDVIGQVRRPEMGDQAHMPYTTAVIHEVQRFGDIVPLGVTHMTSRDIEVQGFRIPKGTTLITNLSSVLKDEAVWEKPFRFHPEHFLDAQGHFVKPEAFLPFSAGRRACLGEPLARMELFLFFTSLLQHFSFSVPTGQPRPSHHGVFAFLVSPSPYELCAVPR

O=C(CCc1nnc(CCCCc2ccccc2)o1)NCCN1CCCCC1=O
EC50 [1]: > 260 µM (inactive)

CN(C)CCCCNCCCNC(=O)/C=N\O
EC50 [1]: > 260 µM (inactive)

CCOc1cc(CNc2cccc3ccccc23)cc(Br)c1OCC(=O)NC(C)(C)C
EC50 [2]: 2.31 µM (active) | EC50 [3]: > 30 µM (not active)

CC(c1nnnn1C(C)(C)C)N(Cc1cccnc1)Cc1ccccc1Cl (stereo unspecified)
EC50 [2]: 0.496 µM (active) | EC50 [3]: > 60 µM (not active)

O=C(c1ccccc1)[C@H](Nc1ccc2ccccc2c1)c1ccccc1
AC50 [4]: 1.58 µM (inconclusive)

COCC(=O)N1CCC2(CC1)CN(c1ccncc1)C2
AC50 [4]: 25.1 µM (inconclusive)

COc1ccc(C(=O)N2CCC3(CC2)CCN(c2cccc(-c4ccccc4)c2)CC3)cc1
AC50 [5]: 25.1 µM (inconclusive)

CCSc1nnc(NC(=O)CSc2nc3c(cc2C#N)CCCC3)s1
AC50 [4]: 3.55 µM (inconclusive) | AC50 [5]: 15.8 µM (inconclusive)

CCCOc1ccc(NC(=O)OC2CCN(C)CC2)cc1
EC50 [2]: 0.442 µM (active) | EC50 [3]: > 60 µM (not active)

CCOc1ccc(NC(=O)c2ccc(OC)cc2)cc1
AC50 [5]: 20 µM (inconclusive)

c1ccc(C(c2ccccc2)c2noc(CN3CCC(c4ccncc4)CC3)n2)cc1
EC50 [2]: 0.943 µM (active) | EC50 [3]: > 30 µM (not active)

CCCCOc1ccc(/C=C/C(=O)NCCc2nc3ccccc3[nH]2)cc1
AC50 [4]: 14.1 µM (inconclusive)

C=CCn1c(=O)c2c(nc(Br)n2Cc2ccccc2Cl)n(C)c1=O
AC50 [5]: 15.8 µM (inconclusive)

CCOc1cc(/C=N/O)cc(Cl)c1OC
AC50 [6]: 31.6 µM (inconclusive)

C/C(=N\Nc1nc(N2CCCCC2)nc(N2CCOCC2)n1)c1ccccc1O
EC50 [2]: 0.681 µM (active) | EC50 [3]: 6.37 µM (active)

CN(C)c1ncc2nc(-c3ccc(F)cc3)c(=O)n(CCc3ccccc3)c2n1
AC50 [5]: 2.51 µM (inconclusive)

CCc1cccc(CC)c1NC(=O)COC(=O)CC1c2ccccc2CCN1S(=O)(=O)c1ccc(F)cc1 (stereo unspecified)
EC50 [1]: > 260 µM (inactive)

CCCCCCCCCCCCC/C=C\[C@@H](O)[C@H](CO)NC(C)=O
AC50 [4]: 3.98 µM (inconclusive)

COC(=O)C(NNc1ccccc1C)(NC(=O)c1ccc(F)cc1)C(F)(F)F (stereo unspecified)
EC50 [1]: > 260 µM (inactive)

COC(=O)CN1C(c2cccc(Cl)c2)=Nc2ccc(Cl)cc2C1c1ccccc1 (stereo unspecified)
EC50 [1]: > 260 µM (inactive)

CN(C)S(=O)(=O)c1ccc(C(=O)Nc2nnc(-c3ccc4c(c3)CCCC4)o2)cc1
EC50 [7]: 0.286 µM (active) | EC50 [8]: 0.264 µM (active)

Cc1cc(Cn2ccnc2)c(C)c([N+](=O)[O-])c1Cn1ccnc1
EC50 [2]: 2.05 µM (active) | EC50 [3]: > 60 µM (not active)

Cc1cc(NC(=O)c2cccs2)n(-c2nc3ccccc3[nH]2)n1
EC50 [2]: 1.95 µM (active) | EC50 [3]: 14.2 µM (active)

CC1(C)CC[C@]2(C(=O)O)CC[C@]3(C)C(=CCC4[C@@]5(C)CC[C@H](O)C(C)(C)C5CC[C@]43C)C2C1 (stereo partly specified)
EC50 [7]: 2.6 µM (active)

N#Cc1ccc(CN2CC3(CCN(C(=O)c4ccncc4)CC3)C2)cc1
AC50 [6]: 12.6 µM (inconclusive)

COc1ccc2c(c1)c(CC(=O)O)c(C)n2C(=O)c1ccc(Cl)cc1 [INDOMETHACIN]
AC50 [5]: 10 µM (inconclusive) and 39.8 µM (inconclusive)

COc1ccc([N+](=O)[O-])cc1N=C(S)NC(NC(=O)Cc1ccc(OC)c(OC)c1)C(Cl)(Cl)Cl (stereo unspecified)
AC50 [5]: 17.8 µM (inconclusive)

O=C(CSc1nccn(-c2ccc(F)c(F)c2)c1=O)NC1CCCC1
EC50 [1]: > 260 µM (inactive)

COc1ccc(NC(=O)N2CCC3(CC2)CCN(C(=O)c2ccncc2)CC3)cc1
AC50 [5]: 25.1 µM (inconclusive) | AC50 [6]: 15.8 µM (inconclusive)

COc1ccccc1N1CCN(C(CNS(=O)(=O)c2cc(F)ccc2F)c2cccnc2)CC1 (stereo unspecified)
EC50 [2]: 0.367 µM (active) | EC50 [3]: > 60 µM (not active)

CC(=O)Nc1sc2c(c1CN1CCN(C)CC1)CCCC2
AC50 [5]: 17.8 µM (inconclusive)

CCC(Sc1nc2cc3c(cc2c(=O)n1Cc1ccco1)OCO3)C(=O)NCCOC (stereo unspecified)
EC50 [1]: > 260 µM (inactive)

CC(=O)Nc1cccc(-n2nnc(SCC(=O)Nc3ccc(F)c(Cl)c3)n2)c1
EC50 [1]: > 260 µM (inactive)

CC(C)(C)c1cc(NC(=O)CCSc2nnc3ccccn23)cc(C(C)(C)C)c1
EC50 [1]: > 260 µM (inactive)

CCCOc1ccc(N2C(=O)CC(N(CCc3ccc(OC)c(OC)c3)C(S)=Nc3ccccc3)C2=O)cc1 (stereo unspecified)
EC50 [2]: 2.1 µM (active) | EC50 [3]: > 30 µM (not active)

Cc1c(N(C)S(=O)(=O)c2cccc(C(=O)NC(C)C)c2)c(=O)n(-c2ccccc2)n1C
EC50 [1]: > 260 µM (inactive)

CS(=O)(=O)Nc1cccc(-c2nccc(Nc3ccc(F)cc3)n2)c1
AC50 [4]: 39.8 µM (inconclusive)

Cc1c(C(=O)NCc2ccc3c(c2)OCO3)oc2ccc(S(=O)(=O)N3CCC(C)CC3)cc12
EC50 [2]: 1.04 µM (active) | EC50 [3]: 50.9 µM (active)

COc1ccc(C(=O)n2nc(C)cc2Nc2ccccc2)cc1
EC50 [1]: 7.2 µM (active)

COc1cccc(NC(=O)CSc2nc(N)cc(N)n2)c1
EC50 [1]: > 260 µM (inactive)

CN1CCN(c2ccc(NC(=O)c3ccc4c(c3)nc(O)n4Cc3ccc(F)cc3)cc2)CC1
EC50 [2]: 0.955 µM (active) | EC50 [3]: > 30 µM (not active)

COc1ccc(C(F)(F)F)cc1N/C=C\c1nnnn1-c1ccccc1
AC50 [5]: 1.41 µM (inconclusive) | AC50 [6]: 31.6 µM (inconclusive)

CCS(=O)(=O)C(=C1NCCO1)S(=O)(=O)CC
EC50 [1]: > 260 µM (inactive)

C[C@](N)(CCP(=O)(O)O)C(=O)O
AC50 [5]: 39.8 µM (inconclusive)

CO[C@@H]1CC=C2CCN3CCC4=C(CC(=O)OC4)[C@]23C1
AC50 [6]: 39.8 µM (inconclusive)

Cc1nn(CC(=O)NCc2ccccc2)c(C)c1[N+](=O)[O-]
AC50 [6]: 22.4 µM (inconclusive)

O=C(NNc1c(Cl)cccc1Cl)C1CCC1
EC50 [1]: > 260 µM (inactive)

COc1cc(/C=N/Nc2snc(SC)c2C#N)cc(OC)c1OC
AC50 [4]: 12.6 µM (inconclusive)

Cc1csc(-c2cnn(-c3ccccc3)c2NC(=O)c2cccc(C(F)(F)F)c2)n1
EC50 [1]: > 260 µM (inactive)

NCCNC(=O)c1ncsc1-c1cccc(F)c1
AC50 [6]: 31.6 µM (inconclusive)

CCN1CCN(c2oc(COc3ccc(-c4ccccc4)cc3)nc2C#N)CC1
EC50 [2]: 2.66 µM (active) | EC50 [3]: > 60 µM (not active)

Cc1cnn(-c2cc(N/N=C/c3cccc(F)c3)ncn2)c1
EC50 [1]: > 260 µM (inactive)

CCN(CC)C(=O)c1ccc(C)c(Br)c1
EC50 [1]: > 260 µM (inactive)

O=C(Nc1ccccc1)/C(=C\c1ccncc1)NC(=O)c1ccccc1
AC50 [5]: 15.8 µM (inconclusive) | AC50 [6]: 0.794 µM (inconclusive)

O=[N+]([O-])c1ccc(S(=O)(=O)NCCS(=O)(=O)N2CCN(c3ccccc3)CC2)cc1
EC50 [2]: 0.247 µM (active) | EC50 [3]: > 60 µM (not active)

C(=N\N1CCN(Cc2cccc3ccccc23)CC1)/c1cccnc1
EC50 [1]: > 260 µM (inactive)

CCOC(=O)NC(NC(=O)OCC)C(=O)c1ccc(F)cc1
AC50 [5]: 10 µM (inconclusive)

CCN(CCCNC(=O)CNC(=O)c1nn(-c2ccc(OC)cc2OC)c(=O)c2ccccc12)c1cccc(C)c1
EC50 [1]: > 260 µM (inactive)

COc1ccc(CCN=C(NS(=O)(=O)c2ccccc2)c2ccccc2)cc1OC
EC50 [1]: > 260 µM (inactive)

O=C(Nc1nnc(SCc2ccc(Cl)cc2)s1)c1ccco1
AC50 [5]: 3.16 µM (inconclusive) | AC50 [6]: 31.6 µM (inconclusive)

COc1ccc(S(=O)(=O)N2CCOC23CCN(S(=O)(=O)c2ccc([N+](=O)[O-])cc2)CC3)cc1
EC50 [2]: 2.03 µM (active) | EC50 [3]: > 30 µM (not active)

COc1cc2c(cc1OC)C(C(=O)N1CCOCC1)C(c1cccs1)N(C)C2=O (stereo unspecified)
AC50 [6]: 25.1 µM (inconclusive)

CC(C)(C)NC(=O)CSc1nnc(Cc2ccc3c(c2)OCO3)n1C1CCCCC1
AC50 [4]: 2.82 µM (inconclusive)

CN(C)C(=O)c1ccc(-c2nc(NCc3cccs3)c3ccccc3n2)cc1
AC50 [4]: 25.1 µM (inconclusive)

Cc1ccc2cc(C(c3nnnn3C3CCCC3)N(Cc3ccco3)Cc3cccs3)c(O)nc2c1 (stereo unspecified)
EC50 [2]: 3.2 µM (active) | EC50 [3]: > 60 µM (not active)
